Source: patent US11981658B2, “Substituted aminopyridine compounds as EGFR inhibitors” (YUHAN CORPORATION, priority 2021, dated 2024)
Where two headings read alike, the source gives them in different places.

Key:
EGFR Del19/T790M/C797S = EGFR Del19/T790M/C797S (Homo sapiens, UniProt P00533, C797S/DEL746-750/T790M); test: Biochemical EGFR kinase inhibition assay (Lance Ultra TR-FRET), triple mutant del19/T790M/C797S
Outline: (§1)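 Enzyme reactions lasted 1 hour at room temperature with test compounds between 0.003 and 10 μM, followed by 10 mM EDTA quench.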

EGFR L858R/T790M/C797S = EGFR L858R/T790M/C797S (Homo sapiens, UniProt P00533, C797S/L858R/T790M); test: Biochemical EGFR kinase inhibition assay (Lance Ultra TR-FRET), triple mutant L858R/T790M/C797S
Outline: as §1

EGFR Del19/C797S = EGFR Del19/C797S (Homo sapiens, UniProt P00533, C797S/DEL746-750); test: Biochemical EGFR kinase inhibition assay (Lance Ultra TR-FRET), double mutant del19/C797S
Outline: as §1

EGFR L858R/C797S = EGFR L858R/C797S (Homo sapiens, UniProt P00533, C797S/L858R); test: Biochemical EGFR kinase inhibition assay (Lance Ultra TR-FRET), double mutant L858R/C797S
Outline: as §1

EGFR wildtype (WT) = EGFR wildtype (WT) (Homo sapiens, UniProt P00533); test: Biochemical EGFR kinase inhibition assay (Lance Ultra TR-FRET), wildtype
Outline: as §1

[1] = ATP at Km, read-out: IC50 Del19/T790M/C797S (nM), Km ATP
[2] = IC50 Del19/T790M/C797S (nM), 100 μM ATP
[3] = ATP at Km, read-out: IC50 L858R/T790M/C797S (nM), Km ATP
[4] = IC50 L858R/T790M/C797S (nM), 100 μM ATP
[5] = ATP at Km, read-out: IC50 Del19/C797S (nM), Km ATP
[6] = IC50 Del19/C797S (nM), 100 μM ATP
[7] = ATP at Km, read-out: IC50 L858R/C797S (nM), Km ATP
[8] = IC50 L858R/C797S (nM), 100 μM ATP
[9] = ATP at Km, read-out: IC50 WT (nM), Km ATP

Sequence of EGFR Del19/C797S (P00533 with tags, fused parts or gaps DEL746-750/C797S): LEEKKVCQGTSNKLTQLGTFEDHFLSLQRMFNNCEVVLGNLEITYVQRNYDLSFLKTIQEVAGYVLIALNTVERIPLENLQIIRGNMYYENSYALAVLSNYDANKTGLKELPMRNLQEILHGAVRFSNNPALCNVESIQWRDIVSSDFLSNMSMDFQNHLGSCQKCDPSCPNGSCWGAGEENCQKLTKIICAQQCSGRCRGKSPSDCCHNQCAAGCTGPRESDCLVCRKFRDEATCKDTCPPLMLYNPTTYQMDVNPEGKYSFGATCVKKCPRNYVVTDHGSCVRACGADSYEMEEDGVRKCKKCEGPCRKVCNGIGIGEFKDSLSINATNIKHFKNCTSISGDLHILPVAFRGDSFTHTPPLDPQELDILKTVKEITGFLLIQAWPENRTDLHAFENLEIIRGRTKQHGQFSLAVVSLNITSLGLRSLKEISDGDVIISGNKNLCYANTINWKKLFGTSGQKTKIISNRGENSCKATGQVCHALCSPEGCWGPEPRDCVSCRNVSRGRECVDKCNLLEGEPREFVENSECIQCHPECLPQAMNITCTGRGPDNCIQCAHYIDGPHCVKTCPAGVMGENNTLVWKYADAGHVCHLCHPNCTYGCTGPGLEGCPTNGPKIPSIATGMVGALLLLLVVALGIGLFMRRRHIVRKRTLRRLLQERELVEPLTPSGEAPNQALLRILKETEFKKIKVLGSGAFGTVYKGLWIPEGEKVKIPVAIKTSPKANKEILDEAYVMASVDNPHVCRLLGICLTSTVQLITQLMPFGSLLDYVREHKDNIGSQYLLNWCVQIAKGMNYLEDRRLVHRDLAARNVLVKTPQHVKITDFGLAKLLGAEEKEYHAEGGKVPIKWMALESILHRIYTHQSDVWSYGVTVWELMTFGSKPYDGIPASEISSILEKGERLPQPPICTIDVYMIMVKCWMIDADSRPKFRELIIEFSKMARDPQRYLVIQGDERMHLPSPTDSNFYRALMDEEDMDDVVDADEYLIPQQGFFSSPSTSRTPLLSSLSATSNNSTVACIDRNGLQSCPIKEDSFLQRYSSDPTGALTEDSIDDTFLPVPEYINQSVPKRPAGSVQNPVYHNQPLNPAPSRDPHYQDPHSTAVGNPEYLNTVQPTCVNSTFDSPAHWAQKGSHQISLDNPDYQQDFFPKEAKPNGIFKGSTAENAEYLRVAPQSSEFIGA
Sequence of EGFR wildtype (WT) (P00533 25-1210): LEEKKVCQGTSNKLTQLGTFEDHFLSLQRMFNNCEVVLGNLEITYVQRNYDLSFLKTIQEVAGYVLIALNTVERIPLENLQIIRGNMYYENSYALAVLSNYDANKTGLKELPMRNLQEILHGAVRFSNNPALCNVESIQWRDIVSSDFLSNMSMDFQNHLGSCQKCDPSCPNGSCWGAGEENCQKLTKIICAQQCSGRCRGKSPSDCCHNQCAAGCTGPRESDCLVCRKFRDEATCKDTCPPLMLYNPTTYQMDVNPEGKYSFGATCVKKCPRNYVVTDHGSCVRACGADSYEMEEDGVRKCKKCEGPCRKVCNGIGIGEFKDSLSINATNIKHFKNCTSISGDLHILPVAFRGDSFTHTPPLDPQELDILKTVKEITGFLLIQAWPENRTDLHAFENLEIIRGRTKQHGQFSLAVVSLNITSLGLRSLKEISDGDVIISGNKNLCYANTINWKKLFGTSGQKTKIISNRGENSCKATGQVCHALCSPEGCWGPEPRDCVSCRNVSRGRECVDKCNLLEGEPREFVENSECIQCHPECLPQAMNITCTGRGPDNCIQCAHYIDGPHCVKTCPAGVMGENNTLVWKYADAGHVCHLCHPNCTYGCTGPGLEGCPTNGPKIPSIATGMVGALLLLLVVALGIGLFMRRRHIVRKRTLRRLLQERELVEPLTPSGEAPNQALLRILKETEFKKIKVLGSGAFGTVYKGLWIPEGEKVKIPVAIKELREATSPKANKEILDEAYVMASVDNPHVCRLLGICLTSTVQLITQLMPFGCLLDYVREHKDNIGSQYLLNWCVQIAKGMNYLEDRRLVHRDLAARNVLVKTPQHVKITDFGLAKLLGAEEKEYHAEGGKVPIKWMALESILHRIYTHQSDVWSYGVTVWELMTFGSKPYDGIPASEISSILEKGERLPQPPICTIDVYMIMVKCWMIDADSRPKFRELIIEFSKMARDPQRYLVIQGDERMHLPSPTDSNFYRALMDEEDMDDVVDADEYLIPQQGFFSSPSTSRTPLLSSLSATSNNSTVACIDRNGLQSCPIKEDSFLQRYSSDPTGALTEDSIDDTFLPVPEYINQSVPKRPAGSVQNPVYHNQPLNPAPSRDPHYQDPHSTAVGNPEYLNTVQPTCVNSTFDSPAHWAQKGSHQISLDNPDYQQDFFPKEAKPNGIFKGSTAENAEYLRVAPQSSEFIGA
Sequence of EGFR Del19/T790M/C797S (P00533 with tags, fused parts or gaps DEL746-750/T790M/C797S): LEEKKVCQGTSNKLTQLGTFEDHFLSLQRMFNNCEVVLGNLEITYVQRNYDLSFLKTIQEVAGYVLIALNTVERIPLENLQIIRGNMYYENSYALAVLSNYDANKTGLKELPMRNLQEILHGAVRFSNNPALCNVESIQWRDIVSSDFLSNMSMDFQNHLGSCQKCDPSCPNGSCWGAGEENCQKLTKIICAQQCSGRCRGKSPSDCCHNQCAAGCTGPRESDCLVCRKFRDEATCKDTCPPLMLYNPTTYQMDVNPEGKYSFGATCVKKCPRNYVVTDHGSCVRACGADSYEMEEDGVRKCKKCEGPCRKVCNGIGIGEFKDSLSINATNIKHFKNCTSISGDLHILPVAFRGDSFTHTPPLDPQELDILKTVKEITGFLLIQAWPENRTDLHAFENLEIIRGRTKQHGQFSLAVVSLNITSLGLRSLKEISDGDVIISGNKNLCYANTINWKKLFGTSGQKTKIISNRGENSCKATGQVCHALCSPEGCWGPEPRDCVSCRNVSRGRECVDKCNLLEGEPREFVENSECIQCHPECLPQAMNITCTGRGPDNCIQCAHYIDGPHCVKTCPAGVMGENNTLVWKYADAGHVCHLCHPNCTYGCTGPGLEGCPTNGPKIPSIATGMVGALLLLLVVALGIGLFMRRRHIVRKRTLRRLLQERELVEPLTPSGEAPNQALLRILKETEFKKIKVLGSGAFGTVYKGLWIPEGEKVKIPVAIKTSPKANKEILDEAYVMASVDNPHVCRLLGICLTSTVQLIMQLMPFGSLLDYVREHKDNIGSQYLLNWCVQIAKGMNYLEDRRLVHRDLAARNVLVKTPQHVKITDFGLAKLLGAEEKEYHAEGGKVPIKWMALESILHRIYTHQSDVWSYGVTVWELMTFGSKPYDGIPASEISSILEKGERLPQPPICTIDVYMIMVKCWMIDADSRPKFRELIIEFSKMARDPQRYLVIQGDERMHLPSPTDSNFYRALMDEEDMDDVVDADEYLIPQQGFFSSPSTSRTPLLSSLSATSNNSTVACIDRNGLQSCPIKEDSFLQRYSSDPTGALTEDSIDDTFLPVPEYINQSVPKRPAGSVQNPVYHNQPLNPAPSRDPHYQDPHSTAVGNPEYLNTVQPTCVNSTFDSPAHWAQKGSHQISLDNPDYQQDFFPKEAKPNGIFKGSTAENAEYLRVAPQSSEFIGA
Sequence of EGFR L858R/C797S (P00533 25-1210 C797S/L858R): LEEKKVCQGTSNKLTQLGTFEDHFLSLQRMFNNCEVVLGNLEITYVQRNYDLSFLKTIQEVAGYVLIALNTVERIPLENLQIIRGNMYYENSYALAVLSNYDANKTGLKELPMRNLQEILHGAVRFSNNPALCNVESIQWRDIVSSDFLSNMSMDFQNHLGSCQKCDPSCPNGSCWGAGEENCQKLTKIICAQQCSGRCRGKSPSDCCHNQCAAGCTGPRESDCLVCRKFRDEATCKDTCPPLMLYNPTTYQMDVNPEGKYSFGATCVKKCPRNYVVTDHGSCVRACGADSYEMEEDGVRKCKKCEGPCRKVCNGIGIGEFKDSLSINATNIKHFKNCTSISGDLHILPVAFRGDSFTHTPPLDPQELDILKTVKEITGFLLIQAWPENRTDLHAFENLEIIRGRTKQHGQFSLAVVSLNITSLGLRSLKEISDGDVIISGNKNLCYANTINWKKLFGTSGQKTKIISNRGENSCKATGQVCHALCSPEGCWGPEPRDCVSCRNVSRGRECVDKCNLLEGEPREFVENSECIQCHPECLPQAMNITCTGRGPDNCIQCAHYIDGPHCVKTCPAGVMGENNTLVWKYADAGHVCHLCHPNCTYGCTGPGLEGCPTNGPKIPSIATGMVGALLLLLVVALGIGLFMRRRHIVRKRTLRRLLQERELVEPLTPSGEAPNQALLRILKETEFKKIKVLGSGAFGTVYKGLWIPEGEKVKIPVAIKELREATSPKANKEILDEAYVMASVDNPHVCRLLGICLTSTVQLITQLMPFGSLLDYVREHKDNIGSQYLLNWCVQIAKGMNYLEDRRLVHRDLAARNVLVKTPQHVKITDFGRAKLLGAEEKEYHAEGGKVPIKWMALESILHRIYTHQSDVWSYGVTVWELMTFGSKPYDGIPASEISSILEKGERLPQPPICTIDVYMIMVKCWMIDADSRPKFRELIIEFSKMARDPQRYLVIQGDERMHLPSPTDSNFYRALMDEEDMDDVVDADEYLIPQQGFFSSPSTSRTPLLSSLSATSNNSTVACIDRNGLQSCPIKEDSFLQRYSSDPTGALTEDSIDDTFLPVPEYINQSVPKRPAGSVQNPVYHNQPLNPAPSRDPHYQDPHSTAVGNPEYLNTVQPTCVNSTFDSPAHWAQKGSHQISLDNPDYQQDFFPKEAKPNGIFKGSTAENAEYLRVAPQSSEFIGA

Structure (SMILES) | IC50 (EGFR Del19/T790M/C797S; [1]) [nM] | IC50 (EGFR Del19/T790M/C797S; [2]) [nM] | IC50 (EGFR L858R/T790M/C797S; [3]) [nM] | IC50 (EGFR L858R/T790M/C797S; [4]) [nM] | IC50 (EGFR Del19/C797S; [5]) [nM] | IC50 (EGFR Del19/C797S; [6]) [nM] | IC50 (EGFR L858R/C797S; [7]) [nM] | IC50 (EGFR L858R/C797S; [8]) [nM] | IC50 (EGFR wildtype (WT); [9]) [nM] | IC50 (EGFR wildtype (WT); IC50 WT (nM), 100 μM ATP) [nM]
CC1(CO)CCN(c2cc(Nc3ccnc(-c4cnn(S(=O)(=O)C5CC5)c4)n3)ncc2C#CC2CCCC2)CC1 [Example 251, (1-(5-(Cyclopentylethynyl)-2-((2-(1-(cyclopropylsulfonyl)-1H-pyrazol-4-yl)pyrimidin-4-yl)amino)pyridin-4-yl)-4-methylpiperidin-4-yl)methanol] | 3 | 3.3 | 1.4 | 5.3 | 8.7 | 15.9 | 41.5 | 397 | 72.6 | > 10000
CC1(CO)CCN(c2cc(Nc3ccnc(-c4cnn(S(=O)(=O)C5CC5)c4)n3)ncc2C#CC2CCCCC2)CC1 [Example 252, (1-(5-(Cyclohexylethynyl)-2-((2-(1-(cyclopropylsulfonyl)-1H-pyrazol-4-yl)pyrimidin-4-yl)amino)pyridin-4-yl)-4-methylpiperidin-4-yl)methanol] | 8.5 | 7.9 | 4.3 | 15.9 | 35.9 | 39.9 | 100 | 2080 | 235 | > 10000
CC1(CO)CCN(c2cc(Nc3ccnc(-c4cnn(S(=O)(=O)C5CC5)c4)n3)ncc2C#Cc2ccc(CN3CCOCC3)cc2)CC1 [Example 253, (1-(2-((2-(1-(Cyclopropylsulfonyl)-1H-pyrazol-4-yl)pyrimidin-4-yl)amino)-5-((4-(morpholinomethyl)phenyl)ethynyl)pyridin-4-yl)-4-methylpiperidin-4-yl)methanol] | 5.3 | 3.3 | 3.1 | 4.4 | 4.2 | 7.1 | 9.8 | 81.2 | 23.9 | > 10000
CN(C)Cc1ccc(C#Cc2cnc(Nc3ccnc(-c4cnn(S(=O)(=O)C5CC5)c4)n3)cc2N2CCC(C)(CO)CC2)cc1 [Example 254, (1-(2-((2-(1-(Cyclopropylsulfonyl)-1H-pyrazol-4-yl)pyrimidin-4-yl)amino)-5-((4-((dimethylamino)methyl)phenyl)ethynyl)pyridin-4-yl)-4-methylpiperidin-4-yl)methanol] | 0.1 | 0.2 | 0.1 | 0.2 | 0.3 | 0.4 | 2.1 | 1.3 | 0.9 | 248
CN(C)Cc1cccc(C#Cc2cnc(Nc3ccnc(-c4cnn(S(=O)(=O)C5CC5)c4)n3)cc2N2CCC(C)(CO)CC2)c1 [Example 255, (1-(2-((2-(1-(Cyclopropylsulfonyl)-1H-pyrazol-4-yl)pyrimidin-4-yl)amino)-5-((3-((dimethylamino)methyl)phenyl)ethynyl)pyridin-4-yl)-4-methylpiperidin-4-yl)methanol] | 1.3 | 0.2 | 0.1 | 0.3 | 0.3 | 0.4 | 1.4 | 1.2 | 1 | 376
CC1(CO)CCN(c2cc(Nc3ccnc(-c4cnn(S(=O)(=O)C5CC5)c4)n3)ncc2C#Cc2ccccc2)CC1 [Example 256, (1-(2-((2-(1-(Cyclopropylsulfonyl)-1H-pyrazol-4-yl)pyrimidin-4-yl)amino)-5-(phenylethynyl)pyridin-4-yl)-4-methylpiperidin-4-yl)methanol] | – | 20.6 | – | 17.7 | – | 7.6 | – | 67.3 | – | > 10000
CC1(CO)CCN(c2cc(Nc3ccnc(-c4cnn(S(=O)(=O)C5CC5)c4)n3)ncc2C#Cc2ccccc2F)CC1 [Example 257, (1-(2-((2-(1-(Cyclopropylsulfonyl)-1H-pyrazol-4-yl)pyrimidin-4-yl)amino)-5-((2-fluorophenyl)ethynyl)pyridin-4-yl)-4-methylpiperidin-4-yl)methanol] | – | 19.4 | – | 23.1 | – | 10.7 | – | 143 | – | > 10000
CC1(CO)CCN(c2cc(Nc3ccnc(-c4cnn(S(=O)(=O)C5CC5)c4)n3)ncc2C#Cc2ccncc2)CC1 [Example 258, (1-(2-((2-(1-(Cyclopropylsulfonyl)-1H-pyrazol-4-yl)pyrimidin-4-yl)amino)-5-(pyridin-4-ylethynyl)pyridin-4-yl)-4-methylpiperidin-4-yl)methanol] | 0.3 | 0.5 | 0.1 | 0.5 | 0.7 | 0.5 | 1.8 | 7.7 | 5 | 5310
CC1(CO)CCN(c2cc(Nc3ccnc(-c4cnn(S(=O)(=O)C5CC5)c4)n3)ncc2C#Cc2ccccn2)CC1 [Example 259, (1-(2-((2-(1-(Cyclopropylsulfonyl)-1H-pyrazol-4-yl)pyrimidin-4-yl)amino)-5-(pyridin-2-ylethynyl)pyridin-4-yl)-4-methylpiperidin-4-yl)methanol] | 0.6 | 0.5 | 0.3 | 0.5 | 0.5 | 1.2 | 1.2 | 36 | 5.3 | 3400
CC1(CO)CCN(c2cc(Nc3ccnc(-c4cnn(S(=O)(=O)C5CC5)c4)n3)ncc2C#Cc2cccnc2)CC1 [Example 260, (1-(2-((2-(1-(Cyclopropylsulfonyl)-1H-pyrazol-4-yl)pyrimidin-4-yl)amino)-5-(pyridin-3-ylethynyl)pyridin-4-yl)-4-methylpiperidin-4-yl)methanol] | 0.5 | 0.4 | 0.2 | 0.3 | 0.3 | 0.5 | 1 | 10.8 | 2.1 | 832
CC1(CO)CCN(c2cc(Nc3ccnc(-c4cnn(S(=O)(=O)C5CC5)c4)n3)ncc2C#Cc2cccc(C(=O)N3CCOCC3)c2)CC1 [Example 261, (3-((6-((2-(1-(Cyclopropylsulfonyl)-1H-pyrazol-4-yl)pyrimidin-4-yl)amino)-4-(4-(hydroxymethyl)-4-methylpiperidin-1-yl)pyridin-3-yl)ethynyl)phenyl)(morpholino)methanone] | 1.2 | 0.6 | 0.5 | 0.6 | 1.3 | 1 | 1.3 | 4.2 | 6.2 | 2500
CN(C)C(=O)c1ccc(C#Cc2cnc(Nc3ccnc(-c4cnn(S(=O)(=O)C5CC5)c4)n3)cc2N2CCC(C)(CO)CC2)cc1 [Example 262, 4-((6-((2-(1-(Cyclopropylsulfonyl)-1H-pyrazol-4-yl)pyrimidin-4-yl)amino)-4-(4-(hydroxymethyl)-4-methylpiperidin-1-yl)pyridin-3-yl)ethynyl)-N,N-dimethylbenzamide] | 1.2 | 1.4 | 0.4 | 1.3 | 0.8 | 1.1 | 0.9 | 5.7 | 4.4 | > 10000
CC1(CO)CCN(c2cc(Nc3ccnc(-c4cnn(S(=O)(=O)C5CC5)c4)n3)ncc2C#Cc2ccc(C(=O)N3CCOCC3)cc2)CC1 [Example 263, (4-((6-((2-(1-(Cyclopropylsulfonyl)-1H-pyrazol-4-yl)pyrimidin-4-yl)amino)-4-(4-(hydroxymethyl)-4-methylpiperidin-1-yl)pyridin-3-yl)ethynyl)phenyl)(morpholino)methanone] | 1.1 | 1.5 | 0.4 | 1.2 | 0.8 | 1.3 | 0.7 | 3.2 | 3 | > 10000
CN(C)C(=O)c1cccc(C#Cc2cnc(Nc3ccnc(-c4cnn(S(=O)(=O)C5CC5)c4)n3)cc2N2CCC(C)(CO)CC2)n1 [Example 264, 6-((6-((2-(1-(Cyclopropylsulfonyl)-1H-pyrazol-4-yl)pyrimidin-4-yl)amino)-4-(4-(hydroxymethyl)-4-methylpiperidin-1-yl)pyridin-3-yl)ethynyl)-N,N-dimethylpicolinamide] | 0.7 | 0.9 | 0.3 | 0.8 | 1 | 1.8 | 1.3 | 14.1 | 9.9 | > 10000
CC1(CO)CCN(c2cc(Nc3ccnc(-c4cnn(S(=O)(=O)C5CC5)c4)n3)ncc2C#Cc2cccc(C(=O)N3CCOCC3)n2)CC1 [Example 265, (6-((6-((2-(1-(Cyclopropylsulfonyl)-1H-pyrazol-4-yl)pyrimidin-4-yl)amino)-4-(4-(hydroxymethyl)-4-methylpiperidin-1-yl)pyridin-3-yl)ethynyl)pyridin-2-yl)(morpholino)methanone] | 0.8 | 0.9 | 0.3 | 0.8 | 0.8 | 1.1 | 0.9 | 9.1 | 7.6 | 6520
